Measured values published in patent US20220373437A1, “SYSTEM FOR EVALUATING CHEMO-PREVENTIVE POTENTIAL OF PHC AND ITS PREPARED CHITOSAN NANOPARTICLES” (priority 2022, published 2022).

Experiments:
Type in all cases: in vivo, Wistar rats
[1] = test system: DEN induced hepatocellular carcinoma; assay: Total bilirubin, total protein, albumin, globulin and A/G ratio in DEN + CCl4 induced HCC rats; settings: ANOVA followed by Dunnett's t-test vs HCC group
Experimental: (§1) In an embodiment, an injection 106 is used for inducing Hepatocellular Carcinoma (HCC), wherein for the induction of HCC, rats administered single intraperitoneal injection of DEN (200 mg/kg body weight) followed by weekly subcutaneous injections of carbon tetrachloride (3 ml/kg body weight) for 6 weeks, wherein the rats are divided into eight groups, from which group 1 is served as normal control, and group 2-8 are given single dose of DEN and repeated dose of CCl4 till the completion of the experimental duration of 16 weeks, wherein freshly prepared solution of DEN in normal saline is used for the induction of HCC in rats by administering 200 mg/kg, i.p., PHC (2:1:1) is dispersed in normal saline suspension to administer at doses of 900 mg/kg, p.o and 1935 mg/kg p.o. Soranib (Sorafenib 200 mg) tablets are powdered and dissolve in normal saline solution and the freshly prepared solution is used as standard drug.
(§2) In an embodiment, a collection unit 108 is used for collecting serum and tissue samples after anesthetizing overnight fasted rats using intraperitoneal administration of thiopentone sodium at a dose of 40 mg/kg, wherein the blood sample is collected by retro-orbital plexus followed by cardiac puncture.
In another embodiment, the treatment unit 110 comprises a centrifuge 116 for centrifugating the collected sample of blood at 3000 rpm for 10 minutes to separate the serum, which is kept at −20° C. until further analysis.
In another embodiment, the live markers are selected from a group comprising Alanine Aminotransaminase (ALT)/Serum Glutamate Pyruvate Transaminase (SGPT), Aspartate Aminotransaminase (AST)/Serum Glutamate Oxaloacetate Transaminase (SGOT), Alkaline Phosphatase (ALP), Lactate dehydrogenase (LDH), total protein, albumin, globulin and total bilirubin.
FIG. 6 illustrates effect on total bilirubin, total protein, albumin and globulin in control and experimental groups in accordance with an embodiment of the present disclosure. All values are expressed as mean±Standard deviation (SD) (n=6) except n=5 in Plant ‘c’ group. Statistical analysis is done using One way Analysis of Variance (ANOVA) followed by Dunnett's t-test using GraphPad Prism Version 8.0.1. Where, HCC is compared with NC group while the treatment groups (Plant ‘a’, Plant ‘b’, Plant ‘c’, PHC (2:1:1), CNP-EL and STD) are compared with HCC group. ^#P<0.0001 is very highly significant when compared with NC, ^aP<0.0001 is very highly significant, ^bP<0.001 is highly significant, ^cP<0.01 is very significant, ^dP<0.05 is significant and ns=not significant when compared with HCC group. Where NC is normal control group; HCC is hepatocellular carcinoma group; Plant ‘a’ group is Berberis aristata treated group; Plant ‘b’ group is Andrographis paniculata treated group; Plant ‘c’ group is Thevetia peruviana treated group; PHC (2:1:1) group is Polyherbal combination of 2:1:1 treated group; CNP-EL group is Chitosan nanoparticles of PHC (2:1:1) treated group and STD group is Standard Sorafenib treated group. Unit: Bilirubin: mg/dl, Total protein, Albumin and globulin: gm/dl.

[2] = test system: DEN induced hepatocellular carcinoma; assay: Macroscopic hepatic nodule incidence in DEN + CCl4 induced HCC rats; settings: DEN 200 mg/kg i.p. + weekly CCl4 s.c., 16 weeks, HCC control group 6-7 nodules, normal control none
Experimental: as §1
In another embodiment, all the rats are allowed to consume commercial pellet diet during the course of the study, wherein eight groups of rat are differentiated into six groups consisting of eight rats and two groups consisting of twelve rats.
In one embodiment, a refrigerator 124 is coupled to the treatment unit 110 for storing the tissues at −20° C. and observing the presence of nodules using the UV spectrophotometer 114. […]

[3] = test system: DEN induced hepatocellular carcinoma; assay: Liver histopathology (H and E stained sections) in DEN + CCl4 induced HCC rats; settings: 16 weeks
Experimental: as §1, §2
In one embodiment, a micropipette 122 is coupled to the treatment unit 110 for pouring formalin solution for histopathological examination. […]

[4] = test system: DEN induced hepatocellular carcinoma; assay: Lipid peroxidation (MDA) in liver tissue homogenates of DEN + CCl4 induced HCC rats; settings: vs HCC group
Experimental: as §1
In one embodiment, a tissue homogenizer 120 is coupled to the treatment unit 110 for preparing ten percentage homogenates of liver tissue. […]
FIG. 7 illustrates effect on lipid peroxidation (LPO) in control and experimental groups in accordance with an embodiment of the present disclosure. All values are expressed as mean±Standard deviation (SD) (n=6) except n=5 in Plant ‘c’ group. […]
Malondialdehyde (MDA), an end product of LPO is assessed in the tumor tissues homogenates. […]

## CNC(=O)c1cc(Oc2ccc(NC(=O)Nc3ccc(Cl)c(C(F)(F)F)c3)cc2)ccn1 [STD, Sorafenib]
[1]
  A/G ratio, change compared to HCC group: very highly significant (^aP<0.0001) increased
  level of albumin, change compared to HCC group: very highly significant (^aP<0.0001) increased
  level of globulin, change compared to HCC group: very highly significant (^aP<0.0001) increased
  level of total bilirubin, change compared to HCC group: very highly significantly (^aP<0.0001) decreased
  level of total protein, change compared to HCC group: very highly significant (^aP<0.0001) increased
[2]
  number of macroscopically visible hepatic nodules: 0-1
[3]
  histopathology of H and E stained section of liver (40×): hepatic tissue with cytoplasm, less necrosis of cell, altered hepatocytes and hepatocellular architecture
[4]
  levels of MDA (lipid peroxidation), change compared to HCC group: very highly significant (^aP<0.0001) decreased
